Laboratory results: ChEMBL document CHEMBL4842373, “C1'-Branched acyclic nucleoside phosphonates mimicking adenosine monophosphate: Potent inhibitors of Trypanosoma brucei adenine phosphoribosyltransferase” (Eur J Med Chem, 2021)

Assay: Inhibition of Trypanosoma brucei adenine phosphoribosyltransferase expressed in Escherichia coli measured by spectrophotometric method

| SMILES | Ki [µM] |
| --- | --- |
| Nc1ncnc2c1ncn2[C@@H](CCOCP(=O)(O)O)OCCO | 1.56 |
| C#CC(COCP(=O)(O)O)n1cnc2c(N)ncnc21 (configuration not stated) | 26.7 |
| CC[C@H](COCP(=O)(O)O)n1cnc2c(N)ncnc21 | 3.18 |
| Nc1ncnc2c1ncn2C(COCP(=O)(O)O)C(F)(F)F (configuration not stated) | > 30 |
| CCO[C@H](COCP(=O)(O)O)n1cnc2c(N)ncnc21 | 2.39 |
| Nc1ncnc2c1ncn2C(CO)COCP(=O)(O)O (configuration not stated) | 19.7 |
| Nc1ncnc2c1ncn2[C@H](CO)COCP(=O)(O)O | 15.4 |
| Nc1ncnc2c1ncn2C(COCCP(=O)(O)O)OCCO (configuration not stated) | > 30 |
| CO[C@H](COCP(=O)(O)O)n1cnc2c(N)ncnc21 | 9.88 |
| CC(C)[C@H](COCP(=O)(O)O)n1cnc2c(N)ncnc21 | 0.57 |
| CCOC(COCP(=O)(O)O)n1cnc2c(N)ncnc21 (configuration not stated) | 3.95 |
| Nc1ncnc2c1ncn2C(COCP(=O)(O)O)C1CC1 (configuration not stated) | 5.84 |
| CCC(COCP(=O)(O)O)n1cnc2c(N)ncnc21 (configuration not stated) | 11.8 |
| C=CC(COCP(=O)(O)O)n1cnc2c(N)ncnc21 (configuration not stated) | 16.3 |
| Nc1ncnc2c1ncn2[C@H](COCc1ccccc1)COCP(=O)(O)O | 39 |
| CC(C)[C@@H](COCP(=O)(O)O)n1cnc2c(N)ncnc21 | 17.5 |
| Nc1ncnc2c1ncn2C(COCP(=O)(O)O)OCCO (configuration not stated) | 6.1 |
| Nc1ncnc2c1ncn2C(CCOCP(=O)(O)O)OCCO (configuration not stated) | 4.9 |
| Nc1ncnc2c1ncn2[C@@H](COCP(=O)(O)O)C1CC1 | 2.95 |
| Nc1ncnc2c1ncn2C(CCP(=O)(O)O)OCCO (configuration not stated) | > 30 |
| Nc1ncnc2c1ncn2[C@@H](COCc1ccccc1)COCP(=O)(O)O | > 30 |
| CCO[C@@H](COCP(=O)(O)O)n1cnc2c(N)ncnc21 | > 30 |
| Nc1ncnc2c1ncn2C(CCOCP(=O)(O)O)OCCCO (configuration not stated) | 3.21 |
| Nc1ncnc2c1ncn2[C@H](CCOCP(=O)(O)O)OCCO | 37.2 |
| COC(COCP(=O)(O)O)n1cnc2c(N)ncnc21 (configuration not stated) | 13.1 |
| CC(COCP(=O)(O)O)n1cnc2c(N)ncnc21 (configuration not stated) | > 30 |
| CO[C@@H](COCP(=O)(O)O)n1cnc2c(N)ncnc21 | > 30 |
